{
  "source": "paper PMC11362383",
  "about": "(ACS applied materials & interfaces, 2024)",
  "key": {"[1]": {"system": "mice", "details": "arginine-rich versus nonarginine peptides; cited from earlier work"}, "[2]": {"system": "Female Rag2−/− mice", "details": "mouse, in vivo, iv"}, "[3]": {"system": "Female Rag2−/− mice", "assay": "Assessment of kidney function", "format": "in vivo", "details": "one week after injection, still within the reference range"}, "[4]": {"system": "Female Rag2−/− mice", "assay": "In vivo toxicity: animal survival after intravenous injection", "details": "i.v.; all of the doses tested (0.0125-0.4 mmol/kg)"}, "[5]": {"system": "Female Rag2−/− mice", "details": "mouse, in vivo, iv", "remark": "listed apart in the source"}},
  "note": "Residues, ends and D or L forms follow the SMILES beside them. *: point of attachment. StBu = CC(C)(C)S*",
  "data": [
    {"molecule": "NCCCC(=O)O", "note": "[GABA]", "values": [
      {"measurement": "survival of mice exposed to the peptide", "setting": "[1]", "result": "mice survived"}
    ]},
    {"molecule": "CC(=O)N[C@@H](CCCNC(=N)N)C(=O)N[C@@H](CCCNC(=N)N)C(=O)N[C@@H](C)C(=O)N[C@@H](C)C(=O)N[C@@H](CC(N)=O)C(=O)N[C@@H](CSSC(C)(C)C)C(=O)N[C@@H](CCCCN)C(=O)O", "note": "[R2] (Ac-RRAANC(StBu)K-OH)", "values": [
      {"measurement": "liver enzyme levels (AST, ALT, ALP) in blood plasma", "setting": "[2]", "result": "no significant differences"}
    ]},
    {"molecule": "CC(=O)N[C@@H](CCCNC(=N)N)C(=O)N[C@@H](CCCNC(=N)N)C(=O)N[C@@H](CCCNC(=N)N)C(=O)N[C@@H](C)C(=O)N[C@@H](C)C(=O)N[C@@H](CC(N)=O)C(=O)N[C@@H](CSSC(C)(C)C)C(=O)N[C@@H](CCCCN)C(=O)O", "note": "[R3] (Ac-RRRAANC(StBu)K-OH)", "values": [
      {"measurement": "liver enzyme levels (AST, ALT, ALP) in blood plasma", "setting": "[2]", "result": "no significant differences"},
      {"measurement": "creatinine levels in urine", "setting": "[3]; 0.1 mmol/kg i.v.", "result": "observable increase"},
      {"measurement": "total protein levels in urine", "setting": "[3]; 0.1 mmol/kg i.v.", "result": "observable increase"}
    ]},
    {"molecule": "ACSSSPSKHCG [TD]", "values": [
      {"measurement": "survival of mice exposed to the peptide", "setting": "[1]", "result": "mice survived"}
    ]},
    {"molecule": "RAANCK [R1]", "values": [
      {"measurement": "observable toxicity in animals", "setting": "[4]", "result": "did not exhibit any observable toxicity"},
      {"measurement": "liver enzyme levels (AST, ALT, ALP) in blood plasma", "setting": "[2]", "result": "no significant differences"}
    ]},
    {"molecule": "RRRRAANCK [R4]", "values": [
      {"measurement": "WBC counts", "setting": "[5]", "result": "significant increase"},
      {"measurement": "platelet counts", "setting": "[5]", "result": "significant decrease"},
      {"measurement": "AST levels in blood plasma", "setting": "[2]", "result": "significant increase"},
      {"measurement": "creatinine levels in urine", "setting": "[3]; 0.5 mmol/kg i.v.", "result": "observable increase"},
      {"measurement": "total protein levels in urine", "setting": "[3]; 0.5 mmol/kg i.v.", "result": "observable increase"}
    ]},
    {"molecule": "RRRRRAANCK [R5]", "values": [
      {"measurement": "WBC counts", "setting": "[5]", "result": "significant increase"},
      {"measurement": "platelet counts", "setting": "[5]", "result": "significant decrease"},
      {"measurement": "ALP levels in blood plasma", "setting": "[2]", "result": "increased"},
      {"measurement": "ALT levels in blood plasma", "setting": "[2]", "result": "increased"},
      {"measurement": "AST levels in blood plasma", "setting": "[2]", "result": "significant increase"}
    ]},
    {"molecule": "RRRRRRAANCK [R6]", "values": [
      {"measurement": "WBC counts", "setting": "[5]", "result": "significant increase"},
      {"measurement": "liver enzyme levels (AST, ALT, ALP) in blood plasma", "setting": "[2]", "result": "no significant differences"}
    ]}
  ]
}
